Measurements from PubChem BioAssay AID1963833 (Molecular Pharmacology Branch, DTP, NCI, 2024).

Tested on: 883617-216-R-J1-PDC complex spheroid viability
Assay: Anticancer human tumor 883617-216-R-J1-PDC patient-derived bladder carcinoma cell line growth inhibition [POLQ]
Conditions: for IC50: curve of first compound; for viability, T/C: stronger effect = lower value
Procedure: Multicellular complex tumor spheroid response to Polymerase (POL) inhibitors (novobiocin, ART-558, RP6685) in combination with a variety of drugs and investigational agents in selected tumor cell lines
The POL inhibitors (novobiocin, ART-558, and RP6685) were evaluated both individually and in combination with standard of care and investigational anticancer small molecules within a complex spheroid model of solid tumors. . Complex spheroids include a stromal component modeled by human endothelial cells (HUVEC) and fibroblasts modeled by human mesenchymal stem cells (MSCs). The concentration ranges selected for each drug and investigational agent were based upon clinically achievable concentrations if the clinical Cmax of the agent was known.
Compounds. The drugs and investigational agents: novobiocin (NSC847541), ART-558 (NSC835418), RP-6685 (NSC848927), peposertib (NSC802822), ceralasertib (NSC780249), elimusertib (NSC800525), camonsertib (NSC841442), AZD-1390 (NSC803789), olaparib (NSC753686), talazoparib (NSC767125), rucaparib (NSC756644), sotorasib (NSC818433), MRTX-1133 (NSC836407), SN-38 (NSC673596), topotecan (NSC609699), epotoside (NSC141540), doxorubicin (NSC123127), gemcitabine (NSC613327), 5-fluorouracil (NSC19893), paclitaxel (NSC125973), vemurafenib (NSC761431), MSA-2 (NSC828583), SN-011 (NSC837082), adavosertib (NSC754352), prexasertib (NSC758257), carboplatin (NSC241240) and oxaliplatin (NSC266046), were obtained from the National Cancer Institute (NCI) Developmental Therapeutics Program Chemical Repository (21). The FDA-approved anticancer drug set is available from the Developmental Therapeutics Program at https://dtp.cancer.gov/organization/dscb/obtaining/. […] The stock solutions were prepared in dimethyl sulfoxide (DMSO, Sigma-Aldrich, St. Louis, MO, cat. D2650), except for the platinum compounds which were prepared in saline (Quality Biological, Gaithersburg, MD, cat. 114-055-101), at 800-fold the tested concentration and stored at -70 degrees C prior to their use. All drugs and investigational agents were tested over a range starting from a high concentration at or near the clinical Cmax and decreasing in half-log increments. If the clinical Cmax for an agent had not been determined, the highest concentration tested was 10 microM, except for SN-38, which was tested at a high concentration of 1 microM.
Cell Culture. All cells were maintained in an incubator at 37 degrees C and 5% CO2 with 95% humidity. The PDC lines were cultured according to standard operating procedures established by the NCI PDMR (https://pdmr.cancer.gov). Table 3 of the manuscript, lists the cell lines along with the number of the three cell types plated to form the mct-spheroids and media for tumor cell growth. After thawing, all PDC lines, except 997537-175-T-J1-PDC and 415267-285-R-J2-PDC, were cultured in Matrigel-coated flasks prepared with a working solution of 1X Ham's F-12 nutrient mix, without supplementation (Thermo Fisher Scientific, cat. 11765054), 100 U/mL penicillin-streptomycin (Thermo Fisher Scientific, cat. 15140122), and 2.5% Matrigel (Corning Inc., Corning, NY, cat. 354248) for the first three passages. The two PDC lines 997537-175-T-J1-PDC and 415267-285-R-J2-PDC were cultured on uncoated flasks. The 857933-349-R-J2-PDC line was cultured in 6C/Colon 1B media containing advanced DMEM/F-12 (Thermo Fisher Scientific, cat. 12634028), 10 mM HEPES (Thermo Fisher Scientific, cat. 15630080), 1X GlutaMAX supplement (Thermo Fisher Scientific, cat. 35050061), 0.1 mg/mL primocin (InvivoGen, San Diego, CA, cat. ant-pm-2), 10% defined fetal bovine serum, heat inactivated (HyClone Laboratories Inc., Logan, UT, cat. SH30070.03HI), 50% L-WRN conditioned media (ATCC, cat. CRL-3276), 1.25 mM N-Acetyl-L-cysteine (Sigma-Aldrich, cat. A9165), 10 mM nicotinamide (Sigma-Aldrich, cat. N0636), 1X B-27 supplement (Thermo Fisher Scientific, cat. 17504044), 1X N-2 supplement (Thermo Fisher Scientific, cat. […]
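Note: spheroids exposed to compounds for seven days before readout.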
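Throughout, for viability, T/C: 100% = DMSO vehicle control viability.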

Compound: C=CCn1c(=O)c2cnc(Nc3ccc(N4CCN(C)CC4)cc3)nc2n1-c1cccc(C(C)(C)O)n1 + Cc1cccc(N(C)C(=O)C2C(O)CCN2c2nc(C)cc(C(F)(F)F)c2C#N)c1
- IC50 (second compound 0.0316 µM): 938 nM
- IC50 (second compound 0.1 µM): > 1000 nM
- IC50 (second compound 0.316 µM): 896 nM
- IC50 (second compound 1 µM): > 1000 nM
- IC50 (second compound 3.16 µM): > 1000 nM
- IC50 (second compound 10 µM): > 1000 nM
- viability, T/C (second compound 0.0316 µM, first compound 0.00316 µM): 106%
- viability, T/C (second compound 0.0316 µM, first compound 0.01 µM): 101%
- viability, T/C (second compound 0.0316 µM, first compound 0.0316 µM): 96.7%
- viability, T/C (second compound 0.0316 µM, first compound 0.1 µM): 86.6%
- viability, T/C (second compound 0.0316 µM, first compound 0.316 µM): 92.7%
- viability, T/C (second compound 0.0316 µM, first compound 1 µM): 47.1%
- viability, T/C (second compound 0.1 µM, first compound 0.00316 µM): 93.5%
- viability, T/C (second compound 0.1 µM, first compound 0.01 µM): 93.3%
- viability, T/C (second compound 0.1 µM, first compound 0.0316 µM): 95.4%
- viability, T/C (second compound 0.1 µM, first compound 0.1 µM): 109%
- viability, T/C (second compound 0.1 µM, first compound 0.316 µM): 86.2%
- viability, T/C (second compound 0.1 µM, first compound 1 µM): 53%
- viability, T/C (second compound 0.316 µM, first compound 0.00316 µM): 88.2%
- viability, T/C (second compound 0.316 µM, first compound 0.01 µM): 99.3%
- viability, T/C (second compound 0.316 µM, first compound 0.0316 µM): 102%
- viability, T/C (second compound 0.316 µM, first compound 0.1 µM): 98.8%
- viability, T/C (second compound 0.316 µM, first compound 0.316 µM): 90.8%
- viability, T/C (second compound 0.316 µM, first compound 1 µM): 45.5%
- viability, T/C (second compound 1 µM, first compound 0.00316 µM): 97.7%
- viability, T/C (second compound 1 µM, first compound 0.01 µM): 99%
- viability, T/C (second compound 1 µM, first compound 0.0316 µM): 108%
- viability, T/C (second compound 1 µM, first compound 0.1 µM): 112%
- viability, T/C (second compound 1 µM, first compound 0.316 µM): 81.9%
- viability, T/C (second compound 1 µM, first compound 1 µM): 53.2%
- viability, T/C (second compound 3.16 µM, first compound 0.00316 µM): 104%
- viability, T/C (second compound 3.16 µM, first compound 0.01 µM): 108%
- viability, T/C (second compound 3.16 µM, first compound 0.0316 µM): 97.6%
- viability, T/C (second compound 3.16 µM, first compound 0.1 µM): 93.6%
- viability, T/C (second compound 3.16 µM, first compound 0.316 µM): 100%
- viability, T/C (second compound 3.16 µM, first compound 1 µM): 53.4%
- viability, T/C (second compound 10 µM, first compound 0.00316 µM): 102%
- viability, T/C (second compound 10 µM, first compound 0.01 µM): 108%
- viability, T/C (second compound 10 µM, first compound 0.0316 µM): 119%
- viability, T/C (second compound 10 µM, first compound 0.1 µM): 99%
- viability, T/C (second compound 10 µM, first compound 0.316 µM): 107%
- viability, T/C (second compound 10 µM, first compound 1 µM): 54.3%
